{"source": "patent US20240115494A1", "about": "“ENCAPSULATED COMPOSITIONS AND METHOD OF USE - AFFECTING SATIETY” (Nutragenom, LLC, priority 2021, published 2024)", "origin": "cited, not measured here", "conditions": "100% glycerol, quoted for comparison"}
{"smiles": "OCC(O)CO", "note": "[100% glycerol, glycerol]", "values": [{"measurement": "Viscosity (comparison value)", "result": "4,000 mPa·s"}]}
